Calls of active or inactive are those of the source. No cut-off for these calls is given here.
What was measured:
Format in all cases: functional, organism-based
Mus musculus [1] = experiment: Antiinflammatory activity in CD1 mouse model of TPA-induced ear edema assessed as decrease in COX-2 expression at 125 ug/ear, each surface administered topically for 15 mins prior to TPA challenge and measured after 6 hrs by qRT-PCR analysis
Mus musculus [2] = experiment: Antiinflammatory activity in CD1 mouse model of TPA-induced ear edema assessed as decrease in IL-6 expression at 125 ug/ear, each surface administered topically for 15 mins prior to TPA challenge and measured after 6 hrs by qRT-PCR analysis
Mus musculus [3] = experiment: Antiinflammatory activity in CD1 mouse assessed as reduction in TPA-induced ear flushing at 125 ug/ear, each surface administered topically for 15 mins prior to TPA challenge and measured after 6 hrs
Mus musculus [4] = experiment: Antiinflammatory activity against TPA-induced ear edema in CD1 mouse assessed as reduction in weight of ear punches at 125 ug/ear, each surface administered topically for 15 mins prior to TPA challenge and measured after 6 hrs
Mus musculus [5] = experiment: Antiinflammatory activity against TPA-induced ear edema in CD1 mouse assessed as reduction in ear edema at 125 ug/ear, each surface administered topically for 15 mins prior to TPA challenge and measured after 6 hrs
Mus musculus [6] = experiment: Antiinflammatory activity in CD1 mouse model of TPA-induced ear edema assessed as decrease in TNFalpha expression at 125 ug/ear, each surface administered topically for 15 mins prior to TPA challenge and measured after 6 hrs by qRT-PCR analysis
Mus musculus [7] = experiment: Antiinflammatory activity in CD1 mouse model of TPA-induced ear edema assessed as decrease in MIF expression at 125 ug/ear, each surface administered topically for 15 mins prior to TPA challenge and measured after 6 hrs by qRT-PCR analysis
Mus musculus [8] = experiment: Antiinflammatory activity in CD1 mouse model of TPA-induced ear edema assessed as decrease in IFNgamma expression at 125 ug/ear, each surface administered topically for 15 mins prior to TPA challenge and measured after 6 hrs by qRT-PCR analysis
Mus musculus [9] = experiment: Antiinflammatory activity in CD1 mouse model of TPA-induced ear edema assessed as decrease in COX-2 expression at 250 ug/ear, each surface administered topically for 15 mins prior to TPA challenge and measured after 6 hrs by qRT-PCR analysis
Mus musculus [10] = experiment: Antiinflammatory activity against TPA-induced ear edema in CD1 mouse assessed as reduction in weight of ear punches at 225 ug/ear, each surface administered topically for 15 mins prior to TPA challenge and measured after 6 hrs
Mus musculus [11] = experiment: Antiinflammatory activity in CD1 mouse model of TPA-induced ear edema assessed as decrease in IL-6 expression at 250 ug/ear, each surface administered topically for 15 mins prior to TPA challenge and measured after 6 hrs by qRT-PCR analysis
Mus musculus [12] = experiment: Antiinflammatory activity in CD1 mouse model of TPA-induced ear edema assessed as decrease in MIF expression at 250 ug/ear, each surface administered topically for 15 mins prior to TPA challenge and measured after 6 hrs by qRT-PCR analysis
Mus musculus [13] = experiment: Antiinflammatory activity in CD1 mouse model of TPA-induced ear edema assessed as decrease in IFNgamma expression at 250 ug/ear, each surface administered topically for 15 mins prior to TPA challenge and measured after 6 hrs by qRT-PCR analysis
Mus musculus [14] = experiment: Antiinflammatory activity in CD1 mouse model of TPA-induced ear edema assessed as decrease in TNFalpha expression at 250 ug/ear, each surface administered topically for 15 mins prior to TPA challenge and measured after 6 hrs by qRT-PCR analysis
Mus musculus [15] = experiment: Antiinflammatory activity in CD1 mouse assessed as reduction in TPA-induced ear flushing at 250 ug/ear, each surface administered topically for 15 mins prior to TPA challenge and measured after 6 hrs
Mus musculus [16] = experiment: Antiinflammatory activity against TPA-induced ear edema in CD1 mouse assessed as reduction in ear edema at 225 ug/ear, each surface administered topically for 15 mins prior to TPA challenge and measured after 6 hrs

| SMILES | Activity (Mus musculus [1]) | Activity (Mus musculus [2]) | Activity (Mus musculus [3]) | Activity (Mus musculus [4]) | Activity (Mus musculus [5]) | Activity (Mus musculus [6]) | Activity (Mus musculus [7]) | Activity (Mus musculus [8]) | Activity (Mus musculus [9]) | Activity (Mus musculus [10]) | Activity (Mus musculus [11]) | Activity (Mus musculus [12]) | Activity (Mus musculus [13]) | Activity (Mus musculus [14]) | Activity (Mus musculus [15]) | Activity (Mus musculus [16]) |
| --- | --- | --- | --- | --- | --- | --- | --- | --- | --- | --- | --- | --- | --- | --- | --- | --- |
| CC(=O)O[C@H]1CC[C@@]2(C)C(=CC[C@H]3[C@@H]4C[C@H](OC(C)=O)[C@H]([C@H](C)C(=O)CC[C@H](C)/C=N/O)[C@@]4(C)CC[C@@H]32)C1 | Active | Active | inactive | Active | Active | Active | Active | inactive | – | – | – | – | – | – | – | – |
| CC(=O)O[C@H]1C[C@H]2[C@@H]3CC=C4C[C@@H](O)CC[C@]4(C)[C@H]3CC[C@]2(C)[C@H]1[C@H](C)C(=O)CC/C(C)=N/O | Active | Active | inactive | Active | Active | Active | Active | inactive | – | – | – | – | – | – | – | – |
| CC(=O)O[C@H]1CC[C@@]2(C)C(=CC[C@H]3[C@@H]4C[C@H](OC(C)=O)[C@H]([C@H](C)C(=O)CC[C@@H](C)/C=N/O)[C@@]4(C)CC[C@@H]32)C1 | – | – | – | inactive | – | – | – | – | – | – | – | – | – | – | – | – |
| C[C@@H]1C[C@H]2[C@@H]3CCC4=CC(=O)C=C[C@]4(C)[C@@]3(F)[C@@H](O)C[C@]2(C)[C@@]1(O)C(=O)CO | – | – | – | – | – | – | – | – | Active | Active | Active | Active | inactive | Active | inactive | Active |
| CC(=O)O[C@H]1C[C@H]2[C@@H]3CC=C4C[C@@H](O)CC[C@]4(C)[C@H]3CC[C@]2(C)[C@H]1[C@H](C)C(=O)CC[C@H](C)/C=N/O | Active | Active | inactive | Active | Active | Active | Active | inactive | – | – | – | – | – | – | – | – |
| CC(=O)O[C@H]1C[C@H]2[C@@H]3CC=C4C[C@@H](O)CC[C@]4(C)[C@H]3CC[C@]2(C)[C@H]1[C@H](C)C(=O)CC[C@@H](C)/C=N/O | – | – | – | inactive | – | – | – | – | – | – | – | – | – | – | – | – |
